In brackets after ≈: the same amount, converted by molar mass.
Legend:
Experiment in all cases: ≥ marks a high value that may be exact or a test limit, other limits are often not marked, values filed in µg/mL are converted to µM
[1] = test system: Pseudomonas aeruginosa ATCC 27853
[2] = test system: Escherichia coli ATCC 25922
[3] = test system: Staphylococcus aureus ATCC 29213

Row | Compound | MIC [1] [µM] | MIC [2] [µM] | MIC [3] [µM]
1 | CC[C@H](C)[C@H](NC(=O)[C@H](CCCN=C(N)N)NC(=O)[C@H](CCC(N)=O)NC(=O)[C@@H](NC(=O)[C@H](Cc1cnc[nH]1)NC(=O)[C@H](CCCN=C(N)N)NC(=O)[C@H](CCCCN)NC(=O)[C@@H](N)Cc1ccccc1)C(C)C)C(=O)N[C@@H](CCCCN)C(=O)N[C@@H](CC(=O)O)C(=O)N[C@@H](Cc1ccccc1)C(=O)N[C@@H](CC(C)C)C(=O)N[C@@H](CCCN=C(N)N)C(=O)O [FKRHVQRIKDFLR] |  | 10 (≈ 17.4 µg/mL) | > 40
2 | CC[C@H](C)[C@H](NC(=O)[C@H](CCCN=C(N)N)NC(=O)[C@H](CCC(N)=O)NC(=O)[C@@H](NC(=O)[C@@H](NC(=O)[C@H](CCCN=C(N)N)NC(=O)[C@H](CCCCN)NC(=O)[C@@H](N)Cc1ccccc1)[C@@H](C)CC)C(C)C)C(=O)N[C@@H](CCCCN)C(=O)N[C@@H](CC(=O)O)C(=O)N[C@@H](Cc1ccccc1)C(=O)N[C@@H](C)C(=O)N[C@@H](CCCN=C(N)N)C(=O)O [FKRIVQRIKDFAR] |  | 10 (≈ 16.8 µg/mL) | > 40
3 | CC(=O)N[C@@H](CCCCN)C(=O)N[C@@H](CC(C)C)C(=O)N[C@@H](CC(C)C)C(=O)N[C@@H](CCCCN)C(=O)N[C@@H](CC(C)C)C(=O)N[C@@H](CC(C)C)C(=O)N[C@@H](CCCCN)C(=O)N1CCC[C@H]1C(=O)N[C@@H](CC(C)C)C(=O)N[C@@H](CC(C)C)C(=O)N[C@@H](CCCCN)C(=O)N[C@@H](CC(C)C)C(=O)N[C@@H](CC(C)C)C(=O)N[C@@H](CCCCN)C(N)=O [KLLKLLKPLLKLLK] |  | 10 (≈ 17 µg/mL) | 3.54 (≈ 6.02 µg/mL)

Continued, values first:

Row | MIC [1] [µM] | MIC [2] [µM] | MIC [3] [µM] | Compound
4 | 7.19 (≈ 8 µg/mL) | 28.7 (≈ 32 µg/mL) | > 57.5 | CC[C@H](C)[C@H](NC(=O)[C@H](CCCCN)NC(=O)[C@H](CCCCN)NC(=O)[C@@H](N)CCC(N)=O)C(=O)N[C@@H](C)C(=O)N[C@H](C(=O)N[C@@H](CCCN=C(N)N)C(=O)N[C@@H](CC(C)C)C(=O)N[C@@H](CO)C(=O)N[C@@H](C)C(=O)O)C(C)C [QKKIAVRLSA]
5 |  | 5 (≈ 8.89 µg/mL) | 10 (≈ 17.8 µg/mL) | CC(C)C[C@H](NC(=O)[C@H](CCCCN)NC(=O)[C@H](CC(C)C)NC(=O)[C@H](CC(C)C)NC(=O)[C@H](CCCCN)NC(=O)[C@H](CCCCN)NC(=O)[C@H](CC(C)C)NC(=O)[C@H](CC(C)C)NC(=O)[C@H](CCCCN)NC(=O)[C@H](CC(C)C)NC(=O)[C@H](CC(C)C)NC(=O)[C@H](CCCCN)NC(=O)[C@H](CCCCN)NC(=O)[C@H](C)N)C(=O)N[C@@H](C)C(=O)NCC(=O)O [AKKLLKLLKKLLKLAG]
6 |  | > 293 | > 293 | CC[C@H](C)[C@H](NC(=O)CNC(=O)[C@H](CC(C)C)NC(=O)[C@@H](NC(=O)[C@@H]1CCCN1C(=O)[C@H](CC(N)=O)NC(=O)[C@H](CC(C)C)NC(=O)[C@H](CC(C)C)NC(=O)CNC(=O)[C@H](CC(N)=O)NC(=O)[C@H](CC(C)C)NC(=O)[C@H](CC(C)C)NC(=O)[C@@H](N)CC(=O)O)C(C)C)C(=O)N[C@@H](C)C(=O)N[C@@H](CC(N)=O)C(=O)NCC(=O)N[C@@H](CC(C)C)C(=O)N[C@H](C(=O)NCC(=O)NCC(=O)N[C@@H](CC(C)C)C(=O)N[C@H](C(=O)N[C@@H](CCCCN)C(=O)N[C@@H](CCCCN)C(N)=O)C(C)C)[C@@H](C)O [DLLNGLLNPVLGIANGLTGGLVKK]
7 |  |  | > 33.6 | CC[C@H](C)[C@H](NC(=O)CNC(=O)[C@H](CCCCN)NC(=O)[C@H](CCCCN)NC(=O)[C@H](CCCCN)NC(=O)[C@@H](N)CCCCN)C(=O)NCC(=O)N[C@@H](CCCCN)C(=O)N[C@@H](Cc1ccccc1)C(=O)N[C@@H](CC(C)C)C(=O)N[C@@H](Cc1cnc[nH]1)C(=O)N[C@@H](CO)C(=O)N[C@@H](C)C(=O)N[C@@H](CCCCN)C(=O)N[C@@H](CCCCN)C(=O)N[C@@H](Cc1ccccc1)C(=O)NCC(=O)N[C@@H](CCCCN)C(=O)N[C@@H](C)C(=O)N[C@@H](Cc1ccccc1)C(=O)N[C@H](C(=O)NCC(=O)N[C@@H](CCC(=O)O)C(=O)N[C@H](C(=O)N[C@@H](CCSC)C(=O)N[C@@H](CC(N)=O)C(=O)N[C@@H](CO)C(=O)O)[C@@H](C)CC)C(C)C [KKKKGIGKFLHSAKKFGKAFVGEIMNS]

From DBAASP
